Values joined by “and” are separate entries in the source; they are usually repeats but may differ in a detail not shown here. Identical values can stand only once.
How the values were obtained:
[1] = Ex vivo biodistribution of 177Lu-complexes in Wistar rats; conditions: for Biodistribution of radioactivity, Adipose tissue / Biodistribution of radioactivity, Adrenal gland / Biodistribution of radioactivity, Blood / Biodistribution of radioactivity, Brain / Biodistribution of radioactivity, Femur / Biodistribution of radioactivity, Harderian gland / Biodistribution of radioactivity, Heart / Biodistribution of radioactivity, Kidneys / Biodistribution of radioactivity, Liver / Biodistribution of radioactivity, Lung / Biodistribution of radioactivity, Muscle / Biodistribution of radioactivity, Pancreas / Biodistribution of radioactivity, Spleen / Biodistribution of radioactivity, Testes / Biodistribution of radioactivity, Thymus: i.v.
Excerpt: (§1) The experiments were realized corresponding to the German animal welfare regulations and institutional guidelines and with the permission of the local animal research committee at the Landesdirektion, Dresden. All experimental procedures are following the guidelines of the European Convention for the Protection of Vertebrate Animals used for Experimental and other Scientific Purposes (ETS No. 123). Male Wistar rats weighing 157.69 ± 17.10 g (mean ± SD, N = 35) were purchased from Unilever (HsdCpb:WU, Harlan Winkelmann, Borchen, Germany). Anesthetization was initiated and maintained by desflurane, and animals were put in the supine position and placed on a heating pad to maintain body temperature. A needle catheter was used for administration of the tracers in the tail vein. A second catheter was introduced into the right femoral artery for the extraction of blood samples for metabolite analysis, which was routinely done during SPECT/CT measurements.
The male Wistar rats received a short-term anesthetization by desflurane inhalation. Mean activities of 2.36 ± 0.27 MBq/kg of the ^177Lu-labelled tracers in isotonic saline were injected in a volume of 0.5 mL in the tail vein, with the following specific details: [^177Lu]citrate: 2.56 ± 0.07 MBq/kg, 128.58 body weight (BW, g), n = 4 (g); [^177Lu]BPAMD: 2.33 ± 0.11 MBq/kg, 159.41 BW (g), n = 4 (g); [^177Lu]BPAPD: 2.58 ± 0.24 MBq/kg, 156.38 BW (g), n = 4 (g); [^177Lu]BPPED: 2.27 ± 0.25 MBq/kg, 153.43 BW (g), n = 4 (g); [^177Lu]NO2AP^BP: 2.52 ± 0.25 MBq/kg, 173.82 BW (g), n = 4 (g); [^177Lu]DOTA(M^BP)2: 1.80 ± 0.10 MBq/kg, 181.64 BW (g), n = 4 (g); [^177Lu]DO2A(P^BP)2: 2.46 ± 0.15 MBq/kg, 150.60 BW (g), n = 4 (g). The compounds [^177Lu]DOTA(M^BP)2, [^177Lu]BPPED, and [^177Lu]BPAMD were further chosen for a biodistribution study after 8 days p.i. A mean activity of 19.0 ± 2.5 MBq/kg was injected. Animals were sacrificed after 5 min, 60 min, and 8 days p.i. Organs of interest were excised rapidly and weighed, and the ^177Lu activity was determined with a Wallac WIZARD automatic gamma counter (PerkinElmer, Germany) and decay corrected. The distribution data are expressed in %ID or are normalized to the BW as standard uptake value (SUV), which was calculated with the formula: SUV = (activity per g tissue)/(injected activity) × BW. The skeleton weight was calculated using the following: skeleton weight = 9.66 + 0.0355 × BW, and the total activities associated with the skeleton were calculated by using the activity concentration in the femur and the total skeleton weight.

[2] = Metabolite analysis and in vivo stability, arterial blood and urine samples; set-up: species or system Wistar rats
Excerpt: as §1
Arterial blood plasma samples were taken during SPECT/CT examinations after 1, 3, 5, 10, 20, 30, 60, and 120 min. p.i., and the in vivo metabolism of [^177Lu]BPAMD, [^177Lu]BPAPD, [^177Lu]BPPED, [^177Lu]NO2AP^BP, [^177Lu]DOTA(M^BP)2, and [^177Lu]DO2A(P^BP)2 was analyzed. Plasma was separated by centrifugation (3 min, 11,000×g) followed by precipitation of the plasma proteins with ice-cold methanol (1.5 parts per 1 part plasma) and centrifugation (3 min, 11,000×g). The supernatants were analyzed by radio-TLC and HPLC using the abovementioned methods for quality control. Additionally, urine samples were treated in the same way prior radio-TLC and radio-HPLC analysis.

[3] = 5 min p.i., mean of four animals
[4] = 60 min p.i., mean of four animals
[5] = 8 days p.i., mean for five animals

With `O=C(O)CN1CCN(CC(=O)O)CCN(CP(=O)(O)CC(P(=O)(O)O)P(=O)(O)O)CCN(CC(=O)O)CC1` [[^177Lu]BPPED, metal not drawn] the “Ratio Bone/Adipose tissue” value ([1]; 5 min p.i.) was 17.3, the “Ratio Bone/Adrenal gland” value ([1]; 5 min p.i.) was 5.9 and the “Ratio Bone/Blood” value ([1]; 5 min p.i.) was 3.2. The “Ratio Bone/Brain” value ([1]; 5 min p.i.) was 104.0, the “Ratio Bone/Harderian gland” value ([1]; 5 min p.i.) was 10.4 and the “Ratio Bone/Heart” value ([1]; 5 min p.i.) was 8.0. For the same molecule, the “Ratio Bone/Kidneys” value ([1]; 5 min p.i.) was 1.3, the “Ratio Bone/Liver” value ([1]; 5 min p.i.) was 8.7 and the “Ratio Bone/Lung” value ([1]; 5 min p.i.) was 5.5. For the same molecule, the “Ratio Bone/Muscle” value ([1]; 5 min p.i.) was 17.3, the “Ratio Bone/Pancreas” value ([1]; 5 min p.i.) was 11.2 and the “Ratio Bone/Spleen” value ([1]; 5 min p.i.) was 10.7. For the same molecule, the “Ratio Bone/Testes” value ([1]; 5 min p.i.) was 11.6, the “Ratio Bone/Thymus” value ([1]; 5 min p.i.) was 10.9 and the “Biodistribution of radioactivity, Adipose tissue” value (from here on “Biodistribution … Adipose tissue”) [1, 3] was 0.24 SUV. For the same molecule, the “Biodistribution of radioactivity, Adrenal gland” value (“Biodistribution … Adrenal gland” for short) [1, 3] was 0.70 SUV, the “Biodistribution of radioactivity, Blood” value [1, 3] was 1.30 SUV and the “Biodistribution of radioactivity, Brain” value [1, 3] was 0.04 SUV. For the same molecule, the “Biodistribution of radioactivity, Femur” value [1, 3] was 4.16 SUV, the “Biodistribution of radioactivity, Harderian gland” value (“Biodistribution … Harderian gland” below) [1, 3] was 0.40 SUV and the “Biodistribution of radioactivity, Heart” value [1, 3] was 0.52 SUV. The “Biodistribution of radioactivity, Kidneys” value (“Biodistribution … Kidneys” for short) [1, 3] was 3.09 SUV, the “Biodistribution of radioactivity, Liver” value [1, 3] was 0.48 SUV and the “Biodistribution of radioactivity, Lung” value [1, 3] was 0.75 SUV. The “Biodistribution of radioactivity, Muscle” value [1, 3] was 0.24 SUV, the “Biodistribution of radioactivity, Pancreas” value (from here on “Biodistribution … Pancreas”) [1, 3] was 0.37 SUV and the “Biodistribution of radioactivity, Spleen” value [1, 3] was 0.39 SUV. The “Biodistribution of radioactivity, Testes” value [1, 3] was 0.36 SUV, the “Biodistribution of radioactivity, Thymus” value [1, 3] was 0.38 SUV and the “Ratio Bone/Adipose tissue” value ([1]; 60 min p.i.) was 269.7. For the same molecule, the “Ratio Bone/Adrenal gland” value ([1]; 60 min p.i.) was 72.5, the “Ratio Bone/Blood” value ([1]; 60 min p.i.) was 92.9 and the “Ratio Bone/Brain” value ([1]; 60 min p.i.) was 419.9. The “Ratio Bone/Harderian gland” value ([1]; 60 min p.i.) was 36.4, the “Ratio Bone/Heart” value ([1]; 60 min p.i.) was 141.1 and the “Ratio Bone/Kidneys” value ([1]; 60 min p.i.) was 14.9. For the same molecule, the “Ratio Bone/Liver” value ([1]; 60 min p.i.) was 42.3, the “Ratio Bone/Lung” value ([1]; 60 min p.i.) was 67.5 and the “Ratio Bone/Muscle” value ([1]; 60 min p.i.) was 355.8. The “Ratio Bone/Pancreas” value ([1]; 60 min p.i.) was 181.6, the “Ratio Bone/Spleen” value ([1]; 60 min p.i.) was 41.0 and the “Ratio Bone/Testes” value ([1]; 60 min p.i.) was 185.1. The “Ratio Bone/Thymus” value ([1]; 60 min p.i.) was 212.0, the “Biodistribution … Adipose tissue” value [1, 4] was 0.02 SUV and the “Biodistribution … Adrenal gland” value [1, 4] was 0.08 SUV. The “Biodistribution of radioactivity, Blood” value [1, 4] was 0.06 SUV, the “Biodistribution of radioactivity, Brain” value [1, 4] was 0.01 SUV and the “Biodistribution of radioactivity, Femur” value [1, 4] was 5.67 ± 0.10 SUV and 5.67 SUV. For the same molecule, the “Biodistribution … Harderian gland” value [1, 4] was 0.16 SUV, the “Biodistribution of radioactivity, Heart” value [1, 4] was 0.04 SUV and the “Biodistribution … Kidneys” value [1, 4] was 0.38 SUV. The “Biodistribution of radioactivity, Liver” value [1, 4] was 0.13 SUV, the “Biodistribution of radioactivity, Lung” value [1, 4] was 0.08 SUV and the “Biodistribution of radioactivity, Muscle” value [1, 4] was 0.02 SUV. The “Biodistribution … Pancreas” value [1, 4] was 0.03 SUV, the “Biodistribution of radioactivity, Spleen” value [1, 4] was 0.14 SUV and the “Biodistribution of radioactivity, Testes” value [1, 4] was 0.03 SUV. For the same molecule, the “Biodistribution of radioactivity, Thymus” value [1, 4] was 0.03 SUV, the “Ratio Bone/Adipose tissue” value ([1]; 8 days p.i.) was 1231 and the “Ratio Bone/Adrenal gland” value ([1]; 8 days p.i.) was 159. For the same molecule, the “Ratio Bone/Blood” value ([1]; 8 days p.i.) was 5123, the “Ratio Bone/Brain” value ([1]; 8 days p.i.) was 365 and the “Ratio Bone/Harderian gland” value ([1]; 8 days p.i.) was 46. The “Ratio Bone/Heart” value ([1]; 8 days p.i.) was 653, the “Ratio Bone/Kidneys” value ([1]; 8 days p.i.) was 59 and the “Ratio Bone/Liver” value ([1]; 8 days p.i.) was 189. For the same molecule, the “Ratio Bone/Lung” value ([1]; 8 days p.i.) was 637, the “Ratio Bone/Muscle” value ([1]; 8 days p.i.) was 192 and the “Ratio Bone/Pancreas” value ([1]; 8 days p.i.) was 1104. The “Ratio Bone/Spleen” value ([1]; 8 days p.i.) was 246, the “Ratio Bone/Testes” value ([1]; 8 days p.i.) was 1214 and the “Ratio Bone/Thymus” value ([1]; 8 days p.i.) was 933. The “Biodistribution … Adipose tissue” value [1, 5] was 0.004 SUV, the “Biodistribution … Adrenal gland” value [1, 5] was 0.033 SUV and the “Biodistribution of radioactivity, Blood” value [1, 5] was 0.001 SUV. The “Biodistribution of radioactivity, Brain” value [1, 5] was 0.014 SUV, the “Biodistribution of radioactivity, Femur” value [1, 5] was 5.197 SUV and the “Biodistribution … Harderian gland” value [1, 5] was 0.113 SUV. The “Biodistribution of radioactivity, Heart” value [1, 5] was 0.008 SUV, the “Biodistribution … Kidneys” value [1, 5] was 0.088 SUV and the “Biodistribution of radioactivity, Liver” value [1, 5] was 0.027 SUV. The “Biodistribution of radioactivity, Lung” value [1, 5] was 0.008 SUV, the “Biodistribution of radioactivity, Muscle” value [1, 5] was 0.027 SUV and the “Biodistribution … Pancreas” value [1, 5] was 0.005 SUV. The “Biodistribution of radioactivity, Spleen” value [1, 5] was 0.021 SUV, the “Biodistribution of radioactivity, Testes” value [1, 5] was 0.004 SUV and the “Biodistribution of radioactivity, Thymus” value [1, 5] was 0.006 SUV. The Total skeletal retention ([1]; 8 days p.i., calculated from femur activity concentration and total skeleton weight) was “constant over 8 days”, the Total skeleton retention ([1]; after 60 min, calculated from femur activity concentration and total skeleton weight) was 56.3 ± 6.7 %ID and the “Blood half-life of the slow component (t1/2(β))” value ([2]; arterial blood, single intravenous injection) was 18.7 min. The “Metabolization in blood samples (radio-HPLC and TLC)” value ([2]; within a period of 120 min) was “no evidence of any metabolization”.

— paper PMC4715021, “^177Lu-labelled macrocyclic bisphosphonates for targeting bone metastasis in cancer treatment” (EJNMMI Research, 2016)
